Earlier results in patent US20150164858A1, “COMBINATION COMPRISING PARTHENOLIDE FOR USE IN THE TREATMENT OF ALZHEIMER'S DISEASE AND OTHER NEURODEGENERATIVE DISORDERS” (King Abdullah University of Science and Technology, priority 2012, published 2015).

What was measured:
[1] = tested on: patients with AD; conditions: moderate to severe AD
[2] = tested on: HEK293 cells stably expressing TLR4/MD-2/CD14
[3] = target: TLR4 (Homo sapiens, UniProt O00206)
TLR4, sequence (O00206 24-839): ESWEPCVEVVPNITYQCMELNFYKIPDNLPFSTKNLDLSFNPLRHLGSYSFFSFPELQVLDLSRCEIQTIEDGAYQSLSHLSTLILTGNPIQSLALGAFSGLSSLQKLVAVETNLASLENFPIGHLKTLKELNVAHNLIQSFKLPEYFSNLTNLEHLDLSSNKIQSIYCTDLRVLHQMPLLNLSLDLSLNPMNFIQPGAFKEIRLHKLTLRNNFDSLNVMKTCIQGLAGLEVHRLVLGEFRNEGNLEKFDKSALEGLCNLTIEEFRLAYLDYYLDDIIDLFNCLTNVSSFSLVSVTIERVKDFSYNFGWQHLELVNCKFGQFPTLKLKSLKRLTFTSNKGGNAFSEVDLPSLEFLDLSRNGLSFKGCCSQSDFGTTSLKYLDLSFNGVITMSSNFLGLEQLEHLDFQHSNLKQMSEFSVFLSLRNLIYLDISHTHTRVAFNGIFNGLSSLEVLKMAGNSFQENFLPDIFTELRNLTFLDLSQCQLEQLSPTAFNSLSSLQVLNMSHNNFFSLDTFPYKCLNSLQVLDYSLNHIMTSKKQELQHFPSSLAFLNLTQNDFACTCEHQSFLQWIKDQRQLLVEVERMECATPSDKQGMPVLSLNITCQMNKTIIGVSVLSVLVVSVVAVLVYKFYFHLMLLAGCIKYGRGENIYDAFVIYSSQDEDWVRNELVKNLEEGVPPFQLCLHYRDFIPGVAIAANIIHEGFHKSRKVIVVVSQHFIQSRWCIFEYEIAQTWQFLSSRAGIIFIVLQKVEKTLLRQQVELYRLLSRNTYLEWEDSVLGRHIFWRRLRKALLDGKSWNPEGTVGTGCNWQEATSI

TLR4 signaling [3]	SMILES	cognitive function [1]	TIRAP-mediated activation of NF-κB [2]	TRAM-mediated activation of NF-κB and interferon-sensitive response element [2]	binding site in TLR4 ([3]; intracellular domain of TLR4)
	CC12CC3CC(C)(C1)CC(N)(C3)C2 [Memantine]	improve cognitive function			
suppress TLR4 signaling	CCOC(=O)C1=CCCC[C@H]1S(=O)(=O)Nc1ccc(F)cc1Cl [Resatorvid]		inhibit	inhibit	binding directly to a specific amino acid Cys747
